Blank lines part the entries; values can stand above or below the compound they belong to. Activity calls are given as the source filed them.
Columns and labels:
[1] = reduction of Shn3 3'UTR-driven luciferase in osteoblasts – cell-based, Clone20 osteoblasts, firefly luciferase, cherry-picked, dose response (AID 624132); format: functional;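 also: firefly luciferase luminescence from reporter carrying the Shn3 3'UTR in osteoblasts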
[2] = loss of viability in HepG2 cells – cell-based, CellTiter-Glo, cherry-picked, cytotoxicity control for Shn3 inhibitor project, dose response (AID 624134); format: functional
[3] = non-specific 3'UTR reporter inhibition in Clone20-Shn3RL – cell-based, Renilla luciferase, cherry-picked, counter-screen for Shn3 inhibitor project, dose response (AID 624133); format: functional
[4] = target: Protein Wnt-3a (Mus musculus, UniProt P27467); assay: antagonism of Wnt3a pathway luciferase reporter – Wnt-LIGHT cells, luminescence, selectivity assay for Gli-SUFU antagonist project, dose response (AID 651570); format: functional; details: read-out: IC50_Mean;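 also: Wnt-LIGHT reporter cells stimulated with conditioned medium from Wnt3a-producing cells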
Chain of Protein Wnt-3a (P27467 whole entry): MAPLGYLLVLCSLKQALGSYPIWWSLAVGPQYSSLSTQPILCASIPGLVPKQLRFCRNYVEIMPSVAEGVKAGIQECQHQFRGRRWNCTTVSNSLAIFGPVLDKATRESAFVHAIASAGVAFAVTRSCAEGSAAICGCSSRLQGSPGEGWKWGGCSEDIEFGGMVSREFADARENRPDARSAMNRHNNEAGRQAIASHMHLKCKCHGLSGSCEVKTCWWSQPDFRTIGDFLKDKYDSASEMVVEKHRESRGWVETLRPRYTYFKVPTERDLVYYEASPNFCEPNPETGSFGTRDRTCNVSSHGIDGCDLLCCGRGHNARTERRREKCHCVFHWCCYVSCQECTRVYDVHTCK

[5] = target: T1, COUP transcription factor 2 (Homo sapiens, UniProt P24468); assay: Luminescence-based cell-based high throughput dose response assay to identify inhibitors of COUP-TFII (NR2F2).; format: functional;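 also: HEK293 cells transiently cotransfected with COUP-TFII expression vector and reporter; luciferase reporter luminescence driven by COUP-TFII from the pX2-168 reporter plasmid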
T1 sequence (P24468 whole entry): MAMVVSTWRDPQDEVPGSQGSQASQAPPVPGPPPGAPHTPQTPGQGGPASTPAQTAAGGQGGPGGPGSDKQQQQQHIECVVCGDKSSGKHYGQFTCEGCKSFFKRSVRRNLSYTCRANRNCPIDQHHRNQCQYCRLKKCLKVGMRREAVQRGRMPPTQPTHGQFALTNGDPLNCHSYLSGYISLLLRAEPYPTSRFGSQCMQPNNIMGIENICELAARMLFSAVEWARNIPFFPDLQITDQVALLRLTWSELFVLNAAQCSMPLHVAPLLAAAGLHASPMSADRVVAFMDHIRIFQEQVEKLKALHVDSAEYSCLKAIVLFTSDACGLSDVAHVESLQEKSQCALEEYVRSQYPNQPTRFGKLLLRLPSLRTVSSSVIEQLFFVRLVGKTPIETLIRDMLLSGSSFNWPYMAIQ

[6] = target: Luciferin 4-monooxygenase (Photinus pyralis, UniProt P08659); assay: inhibition of purified Photinus pyralis luciferase – biochemical, luminescence, dose response (AID 1891)
Chain of Luciferin 4-monooxygenase (P08659 whole entry): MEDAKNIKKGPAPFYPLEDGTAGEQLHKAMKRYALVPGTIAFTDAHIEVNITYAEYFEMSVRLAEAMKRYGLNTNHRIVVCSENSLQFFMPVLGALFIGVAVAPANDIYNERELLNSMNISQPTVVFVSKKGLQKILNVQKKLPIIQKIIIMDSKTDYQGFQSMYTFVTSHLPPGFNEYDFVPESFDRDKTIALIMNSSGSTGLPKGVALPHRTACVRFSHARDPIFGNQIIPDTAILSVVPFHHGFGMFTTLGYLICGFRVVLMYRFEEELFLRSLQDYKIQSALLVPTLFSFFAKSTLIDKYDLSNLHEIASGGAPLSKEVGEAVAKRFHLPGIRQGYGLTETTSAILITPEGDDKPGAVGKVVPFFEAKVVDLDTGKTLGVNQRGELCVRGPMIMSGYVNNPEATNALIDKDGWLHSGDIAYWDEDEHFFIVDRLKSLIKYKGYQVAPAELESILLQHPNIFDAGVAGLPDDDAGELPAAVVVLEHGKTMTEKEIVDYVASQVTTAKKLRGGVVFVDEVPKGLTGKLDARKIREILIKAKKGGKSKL

[7] = Luminescence Cell-Based Dose Confirmation HTS to Identify Inhibitors of Platelet Dense Granule Release. [Related pubchem assays: 1663 (Primary HTS), 1678 (Summary of Project)]; format: functional
[8] = test system: CHO-K1; assay: (§1) Counterscreen for antagonists of the orexin 1 receptor (OX1R; HCRTR1): Homogeneous time resolved fluorescence (HTRF)-based cell-based dose response assay to identify antagonists of the parental CHO-K1 cell line. [Related pubchem assays (depositor defined):AID434989, AID435008, AID463079, AID485270, AID492963, AID492964, AID492965, AID493232, AID504699, AID504701]; format: functional; details: Cricetulus griseus
[9] = as §1, with “Fluorescence-based” for “Homogeneous time resolved fluorescence (HTRF)-based”, “cell-based high throughput” for “cell-based”, “CHO” for “CHO-K1”; format: functional
[10] = target: T2, Orexin/Hypocretin receptor type 1 (Homo sapiens, UniProt O43613); assay: Homogeneous Time Resolved Fluorescence (HTRF)-based cell-based high throughput dose response assay for antagonists of the orexin 1 receptor (OX1R; HCRTR1). [Related pubchem assays (depositor defined):AID434989, AID435008, AID463079, AID485270, AID492963, AID492964, AID492965, AID493232, AID504717, AID504718]; format: functional
T2 sequence (O43613 whole entry): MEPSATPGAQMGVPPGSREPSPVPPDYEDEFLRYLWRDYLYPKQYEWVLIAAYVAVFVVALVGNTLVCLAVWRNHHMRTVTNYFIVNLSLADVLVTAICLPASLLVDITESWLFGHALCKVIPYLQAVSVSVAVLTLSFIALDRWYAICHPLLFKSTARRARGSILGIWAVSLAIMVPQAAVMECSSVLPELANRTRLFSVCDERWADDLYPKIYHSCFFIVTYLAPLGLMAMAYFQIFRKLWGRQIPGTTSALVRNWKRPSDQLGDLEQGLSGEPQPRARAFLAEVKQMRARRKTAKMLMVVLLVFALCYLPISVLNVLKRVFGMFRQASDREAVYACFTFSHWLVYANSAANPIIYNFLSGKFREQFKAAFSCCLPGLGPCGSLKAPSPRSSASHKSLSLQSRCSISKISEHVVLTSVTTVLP

[11] = target: T2, Orexin/Hypocretin receptor type 1; assay: Fluorescence-based cell-based high throughput dose response assay for antagonists of the orexin 1 receptor (OX1R; HCRTR1). [Related pubchem assays (depositor defined):AID434989, AID435008, AID463079, AID485270, AID492963, AID492964, AID492965, AID493232, AID504717, AID504718]; format: functional
[12] = target: T3, Orexin receptor type 2 (Homo sapiens, UniProt O43614); assay: Counterscreen assay for antagonists of the orexin 1 receptor (OX1R; HCRTR1): Fluorescence-based cell-based dose response assay for antagonists of the orexin 2 receptor (OX2R; HCRTR2), run by assay provider.; format: functional
T3 sequence (O43614 whole entry): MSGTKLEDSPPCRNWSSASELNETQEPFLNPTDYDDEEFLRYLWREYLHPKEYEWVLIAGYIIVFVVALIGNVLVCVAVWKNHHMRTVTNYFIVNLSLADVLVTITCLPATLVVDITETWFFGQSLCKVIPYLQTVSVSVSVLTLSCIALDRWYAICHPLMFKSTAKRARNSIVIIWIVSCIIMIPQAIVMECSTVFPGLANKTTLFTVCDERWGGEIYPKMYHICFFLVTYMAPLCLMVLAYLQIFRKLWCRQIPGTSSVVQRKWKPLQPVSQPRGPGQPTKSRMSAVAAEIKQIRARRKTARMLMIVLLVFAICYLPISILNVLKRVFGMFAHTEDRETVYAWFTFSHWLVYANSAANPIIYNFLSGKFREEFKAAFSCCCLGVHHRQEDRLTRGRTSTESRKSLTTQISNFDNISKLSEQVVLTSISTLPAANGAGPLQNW

[13] = target: T3, Orexin receptor type 2; assay: Counterscreen assay for antagonists of the orexin 1 receptor (OX1R; HCRTR1): Homogeneous Time Resolved Fluorescence (HTRF)-based cell-based dose response assay for antagonists of the orexin 2 receptor (OX2R; HCRTR2), run by assay provider.; format: functional
[14] = viability loss in HepG2 hepatoma cells – cell-based, ATP luminescence, cherry-pick, activator set 2, cytotoxicity control, dose response (AID 1053143); format: functional
[15] = target: Heat shock protein HSP 90-alpha (Homo sapiens, UniProt P07900); format: functional, organism-based
[16] = target: Ras and Rab interactor 1/Tyrosine-protein kinase ABL1 (Homo sapiens, UniProt P00519+Q13671); format: functional;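 also: biochemical TR-FRET dose-response test measuring inhibition of binding between Rin1 and Abl proteins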
Chain of Ras and Rab interactor 1/Tyrosine-protein kinase ABL1 (P00519 whole entry): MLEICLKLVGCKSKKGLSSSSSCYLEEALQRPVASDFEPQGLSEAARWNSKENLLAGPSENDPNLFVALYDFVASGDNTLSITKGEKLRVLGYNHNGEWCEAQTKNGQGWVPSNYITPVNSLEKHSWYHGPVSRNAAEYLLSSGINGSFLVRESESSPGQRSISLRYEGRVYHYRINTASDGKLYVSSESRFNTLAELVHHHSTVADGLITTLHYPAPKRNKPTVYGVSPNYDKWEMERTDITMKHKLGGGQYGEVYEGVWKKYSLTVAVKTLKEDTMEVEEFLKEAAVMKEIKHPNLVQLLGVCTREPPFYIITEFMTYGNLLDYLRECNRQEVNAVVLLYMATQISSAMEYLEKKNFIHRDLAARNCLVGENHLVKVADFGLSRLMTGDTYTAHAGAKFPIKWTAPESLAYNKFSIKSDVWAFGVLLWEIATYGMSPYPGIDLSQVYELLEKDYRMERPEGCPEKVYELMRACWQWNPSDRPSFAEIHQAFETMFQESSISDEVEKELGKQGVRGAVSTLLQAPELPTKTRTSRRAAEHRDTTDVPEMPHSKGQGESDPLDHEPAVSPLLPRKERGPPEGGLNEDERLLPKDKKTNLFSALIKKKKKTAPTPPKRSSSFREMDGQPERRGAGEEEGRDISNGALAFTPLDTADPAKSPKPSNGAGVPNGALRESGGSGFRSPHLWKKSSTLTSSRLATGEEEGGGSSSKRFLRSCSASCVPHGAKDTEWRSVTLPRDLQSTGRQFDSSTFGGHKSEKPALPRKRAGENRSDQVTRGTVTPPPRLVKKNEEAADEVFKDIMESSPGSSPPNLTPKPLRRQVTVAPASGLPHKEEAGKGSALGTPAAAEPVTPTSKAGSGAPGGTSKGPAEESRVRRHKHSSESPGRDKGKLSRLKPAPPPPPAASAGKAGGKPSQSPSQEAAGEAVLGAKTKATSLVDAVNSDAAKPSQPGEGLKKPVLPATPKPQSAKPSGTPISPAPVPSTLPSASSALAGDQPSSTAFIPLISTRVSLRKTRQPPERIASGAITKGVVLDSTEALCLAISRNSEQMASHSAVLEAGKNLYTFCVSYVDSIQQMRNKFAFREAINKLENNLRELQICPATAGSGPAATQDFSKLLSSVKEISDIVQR
Chain of Ras and Rab interactor 1/Tyrosine-protein kinase ABL1 (Q13671 whole entry): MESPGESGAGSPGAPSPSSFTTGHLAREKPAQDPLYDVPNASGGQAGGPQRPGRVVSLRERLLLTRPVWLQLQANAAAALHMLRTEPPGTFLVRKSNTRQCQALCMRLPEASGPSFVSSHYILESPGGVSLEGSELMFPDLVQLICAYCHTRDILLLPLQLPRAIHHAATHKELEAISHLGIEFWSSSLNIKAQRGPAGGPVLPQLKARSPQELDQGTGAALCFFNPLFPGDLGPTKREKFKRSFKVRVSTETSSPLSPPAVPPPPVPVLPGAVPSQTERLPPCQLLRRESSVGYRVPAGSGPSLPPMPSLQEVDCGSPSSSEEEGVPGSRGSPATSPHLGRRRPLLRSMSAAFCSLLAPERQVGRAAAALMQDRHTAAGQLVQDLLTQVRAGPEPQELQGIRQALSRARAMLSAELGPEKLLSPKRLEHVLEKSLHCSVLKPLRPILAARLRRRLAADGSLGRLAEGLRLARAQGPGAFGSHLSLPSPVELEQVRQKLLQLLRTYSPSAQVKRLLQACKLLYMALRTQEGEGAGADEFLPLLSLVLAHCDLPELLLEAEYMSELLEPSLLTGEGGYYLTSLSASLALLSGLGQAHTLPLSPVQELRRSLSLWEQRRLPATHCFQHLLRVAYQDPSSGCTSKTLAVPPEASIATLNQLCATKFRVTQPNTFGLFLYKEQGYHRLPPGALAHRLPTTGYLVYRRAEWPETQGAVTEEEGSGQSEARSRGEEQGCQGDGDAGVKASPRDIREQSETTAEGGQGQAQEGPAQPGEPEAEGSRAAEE

[17] = target: Mitochondrial peptide methionine sulfoxide reductase (Bos taurus, UniProt P54149); assay: Absorbance-based biochemical high throughput dose response assay for activators of Methionine sulfoxide reductase A (MsrA).; format: functional
Chain of Mitochondrial peptide methionine sulfoxide reductase (P54149 whole entry): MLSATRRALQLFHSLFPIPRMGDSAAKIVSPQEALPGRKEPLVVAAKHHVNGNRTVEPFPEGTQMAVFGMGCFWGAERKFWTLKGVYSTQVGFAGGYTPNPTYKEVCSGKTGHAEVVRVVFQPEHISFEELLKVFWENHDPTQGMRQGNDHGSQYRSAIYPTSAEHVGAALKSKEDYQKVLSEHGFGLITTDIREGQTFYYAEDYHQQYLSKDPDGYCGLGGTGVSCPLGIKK

[18] = target: T4, Histone-lysine N-methyltransferase NSD2 (Homo sapiens, UniProt O96028); format: biochemical
T4 sequence (O96028 whole entry): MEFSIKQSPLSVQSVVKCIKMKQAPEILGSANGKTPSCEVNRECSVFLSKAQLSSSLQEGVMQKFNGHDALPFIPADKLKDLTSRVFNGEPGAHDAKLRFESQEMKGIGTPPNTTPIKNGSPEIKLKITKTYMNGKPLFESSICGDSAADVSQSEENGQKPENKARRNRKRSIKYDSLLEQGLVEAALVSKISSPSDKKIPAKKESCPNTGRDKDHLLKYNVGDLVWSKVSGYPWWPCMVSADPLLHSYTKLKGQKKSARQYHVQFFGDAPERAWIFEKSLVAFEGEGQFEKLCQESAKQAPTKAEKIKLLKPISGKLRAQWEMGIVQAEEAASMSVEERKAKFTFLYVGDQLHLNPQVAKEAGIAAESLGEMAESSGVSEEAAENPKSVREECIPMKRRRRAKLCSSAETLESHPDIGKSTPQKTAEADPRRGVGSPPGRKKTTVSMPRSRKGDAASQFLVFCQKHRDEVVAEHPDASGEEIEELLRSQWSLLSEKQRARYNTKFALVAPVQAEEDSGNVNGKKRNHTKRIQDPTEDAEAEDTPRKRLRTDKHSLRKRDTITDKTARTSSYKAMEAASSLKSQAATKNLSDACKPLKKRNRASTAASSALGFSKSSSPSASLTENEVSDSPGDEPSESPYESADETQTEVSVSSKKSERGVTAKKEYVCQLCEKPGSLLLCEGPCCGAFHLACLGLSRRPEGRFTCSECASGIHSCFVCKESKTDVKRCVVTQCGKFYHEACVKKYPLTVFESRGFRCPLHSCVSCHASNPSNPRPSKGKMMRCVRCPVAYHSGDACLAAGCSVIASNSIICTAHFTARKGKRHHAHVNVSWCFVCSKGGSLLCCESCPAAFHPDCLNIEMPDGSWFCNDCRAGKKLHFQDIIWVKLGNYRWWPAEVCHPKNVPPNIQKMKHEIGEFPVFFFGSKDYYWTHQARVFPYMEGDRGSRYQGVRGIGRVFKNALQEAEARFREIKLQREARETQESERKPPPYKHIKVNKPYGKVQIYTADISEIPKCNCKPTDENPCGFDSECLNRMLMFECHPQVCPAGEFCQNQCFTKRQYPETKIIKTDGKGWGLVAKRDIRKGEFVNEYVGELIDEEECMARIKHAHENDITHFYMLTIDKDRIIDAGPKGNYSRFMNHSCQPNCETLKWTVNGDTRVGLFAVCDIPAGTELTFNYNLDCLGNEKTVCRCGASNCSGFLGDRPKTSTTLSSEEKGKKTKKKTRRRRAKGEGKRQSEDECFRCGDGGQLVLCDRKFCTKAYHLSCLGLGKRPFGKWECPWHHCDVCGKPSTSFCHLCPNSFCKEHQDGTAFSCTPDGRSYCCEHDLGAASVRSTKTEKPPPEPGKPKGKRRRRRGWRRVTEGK

[19] = target: T5, Tyrosyl-DNA phosphodiesterase 2 (Homo sapiens, UniProt O95551); assay: potency against TDP2 phosphodiesterase activity – biochemical, epi absorbance, IC50, dose response (AID 743297)
T5 sequence (O95551 whole entry): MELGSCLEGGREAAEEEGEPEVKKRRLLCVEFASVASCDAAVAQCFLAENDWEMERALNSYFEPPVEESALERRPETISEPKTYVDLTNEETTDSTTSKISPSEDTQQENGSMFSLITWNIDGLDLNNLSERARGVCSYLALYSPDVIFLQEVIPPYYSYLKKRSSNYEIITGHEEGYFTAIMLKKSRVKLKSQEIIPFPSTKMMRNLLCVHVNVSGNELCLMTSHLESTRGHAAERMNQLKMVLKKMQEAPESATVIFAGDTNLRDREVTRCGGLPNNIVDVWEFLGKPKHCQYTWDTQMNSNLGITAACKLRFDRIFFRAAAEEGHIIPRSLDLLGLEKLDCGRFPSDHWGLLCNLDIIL

[20] = target: T6, RNA-editing ligase 1, mitochondrial (Trypanosoma brucei brucei, UniProt P86926); assay: inhibition of trypanosome RNA editing ligase – biochemical, fluorescence, Trypanosoma brucei, dose response (AID 1117295); format: functional
T6 sequence (P86926 whole entry): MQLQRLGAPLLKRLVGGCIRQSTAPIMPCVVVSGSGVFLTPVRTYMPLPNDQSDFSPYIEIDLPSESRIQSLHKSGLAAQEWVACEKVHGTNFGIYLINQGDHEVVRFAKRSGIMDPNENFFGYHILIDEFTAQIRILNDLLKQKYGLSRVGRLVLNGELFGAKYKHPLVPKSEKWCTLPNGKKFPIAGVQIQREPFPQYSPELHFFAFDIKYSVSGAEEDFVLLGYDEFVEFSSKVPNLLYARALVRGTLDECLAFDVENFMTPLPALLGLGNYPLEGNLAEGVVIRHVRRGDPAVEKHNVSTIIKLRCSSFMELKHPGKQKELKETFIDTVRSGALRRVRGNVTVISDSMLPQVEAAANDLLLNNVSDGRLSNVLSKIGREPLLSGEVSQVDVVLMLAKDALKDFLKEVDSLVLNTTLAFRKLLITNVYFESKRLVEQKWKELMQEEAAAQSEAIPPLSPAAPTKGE

SMILES: CC1C(OC(=O)CCC(=O)NC(C)(C)CO)O[C@H]2OC3(C)CC[C@H]4[C@H](C)CCC1C24OO3 (some centres not stated)
- AC50 [1]: 0.495 µM (active)
- AC50 [2]: > 70 µM (inactive)
- AC50 [3]: 0.841 µM (active)
- IC50 [4]: 0.794 µM (active)
- IC50 [5]: > 85.4 µM (inactive)

SMILES: COc1cccc2oc3ccc(C#Cc4ccccn4)cc3c(=O)c12
- EC50 [6]: 1.19 µM (active)
- EC50 [7]: 5.1 µM (active)
- IC50 [8]: > 66.2 µM (inactive)
- IC50 [9]: > 49.8 µM (inactive)
- IC50 [10]: 0.881 µM (active)
- IC50 [11]: 13.5 µM (inactive)
- IC50 [12]: > 88.8 µM (inactive)
- IC50 [13]: 0.82 µM (active)
- AC50 [14]: 16.4 µM (active)

SMILES: Cc1c(CCCl)c(Cl)n2c(nc3ccccc32)c1C#N
- AC50 [15]: 3.86 µM (active)
- AC50 [1]: 0.912 µM (active)
- AC50 [2]: 8.13 µM (active)
- AC50 [3]: 2.98 µM (active)

SMILES: Cc1noc(C)c1COc1ccc(C(=O)OCC(=O)N2CC(=O)Nc3ccccc32)cc1
- IC50 [8]: > 66.2 µM (inactive)
- IC50 [9]: > 49.8 µM (inactive)
- IC50 [10]: 14.9 µM (inactive)
- IC50 [11]: 0.861 µM (active)
- IC50 [12]: > 88.8 µM (inactive)
- IC50 [13]: > 50 µM (inactive)

- IC50 [16]: 2.62 µM (active)
SMILES: Cn1c(=O)c2c(nc(-n3ccnc3)n2Cc2ccc(Cl)cc2Cl)n(C)c1=O

SMILES: CCOC(=O)N1CCN(C(=O)CSc2ccc(-c3ccccc3)nn2)CC1
- IC50 [8]: > 66.2 µM (inactive)
- IC50 [9]: > 49.7 µM (inactive)
- IC50 [10]: 2.12 µM (active)
- IC50 [11]: 16.3 µM (inactive)
- IC50 [12]: > 88.8 µM (inactive)
- IC50 [13]: > 50 µM (inactive)

- EC50 [17]: 44.4 µM (inactive)
- AC50 [18]: 4.32 µM (active)
- IC50 [19]: 4.46 µM (active)
- IC50 [20]: 28.3 µM (inactive)
SMILES: COC1=CC(=O)c2nc(Cl)ccc2C1=O

- IC50 [16]: 0.0967 µM (active)
- AC50 [18]: 7.6 µM (active)
SMILES: CCOC(=O)CCCCC(=O)c1[nH]c(O)nc1CSc1nc2ccccc2[nH]1

From ChEMBL document CHEMBL1201862, “PubChem BioAssay data set” (2004)
